In article PMC7764795, “Physiological Response of Corynebacterium glutamicum to Indole” (Microorganisms, 2020):

Molecular target: T1, Cg3388 (IhtR) (Corynebacterium glutamicum, UniProt Q8NL89)
T1 construct: gene Cgl3059; Cg3388 with N-terminal His-tag kept (pET16b-cg3388), E. coli BL21(DE3), Ni-NTA
T1 sequence (Q8NL89 1-287): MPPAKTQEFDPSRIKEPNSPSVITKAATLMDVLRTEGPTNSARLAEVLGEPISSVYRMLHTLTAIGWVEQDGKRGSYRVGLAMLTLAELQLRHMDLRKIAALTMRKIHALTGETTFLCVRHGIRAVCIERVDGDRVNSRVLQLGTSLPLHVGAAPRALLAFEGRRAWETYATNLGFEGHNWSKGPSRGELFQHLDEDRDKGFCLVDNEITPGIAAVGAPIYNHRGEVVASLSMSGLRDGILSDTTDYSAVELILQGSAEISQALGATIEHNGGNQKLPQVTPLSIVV
Experiment: EMSA, release of target DNA by effector
Type: binding
Settings: threshold, not a constant; Cg3388 in 153-fold molar excess over 45 ng cg3388-iolT2 intergenic DNA; pH 7.5, 10 mM MgCl2, room temperature; effector (inducer) of repressor

| concentration above which DNA binding is interfered with [mM] | Compound |
| --- | --- |
| > 4 | c1ccc2[nH]ccc2c1 [indole] |
| > 0.5 | Oc1ccc(O)cc1 [hydroquinone] |
| > 0.05 | Oc1ccc(O)c(O)c1 [1,2,4-trihydroxybenzene] |
